Source: paper PMC5641094, “A peptide antagonist of Prep1-p160 interaction improves ceramide-induced insulin resistance in skeletal muscle cells” (Oncotarget, 2017)

System: p160 mRNA
Experiment: Real-time RT-PCR of p160 mRNA in L6 cells
Format: cell-based, rat
Conditions: C2cer 10μM, 18h, normalized to GAPDH
Protocol: Figure 2 Effect of ceramides on Prep1 and p160 mRNA expression and of Prep1-p160 coprecipitation L6 cells were treated with C2cer (10μM) for 18h and Prep1 (A) or p160 (B) mRNA levels were analyzed by real-time RT-PCR analysis. Data were normalized by the amount of GAPDH mRNA, used as internal control. Bars represent the mean ± SD of three independent experiments, each performed in triplicate. (C) L6 cells were treated with cycloheximide (CHX) at 40μg/mL concentration for 18h and the lysates were analyzed by Western blot with anti-p160 and beta-actin. The autoradiograph shown is representative of three different experiments and subjected to densitometric analysis. (D) Protein lysates from L6 cells treated with C2cer as indicated, were immunoprecipitated with Prep1 antibody and immunoblotted with p160 or Prep1 antibodies. The autoradiograph shown is representative of three different experiments and subjected to densitometric analysis. Asterisks denote statistically significant differences (*p<0.05; **p<0.01).
Total cellular RNA was isolated from L6 cells by using the RNeasy kit (QIAGEN Sciences, Germany), according to manufacturer instructions. 1μg of cell RNA was reverse-transcribed using Superscript III Reverse Transcriptase (Life Technologies Carlsbad, CA, USA). PCR reactions were analyzed using IQTM SYBR Green Supermix (Bio-Rad, Hercules, CA). […]

SMILES: CCCCCCCCCCCCC/C=C/[C@@H](O)[C@H](CO)NC(C)=O [C2cer, D-erythro-Sphingosine, N-Acetyl-, reference compound]
- effect on p160 mRNA levels: not affected
